Experimental data as given in article PMC9701179, “New tricyclic systems as photosensitizers towards triple negative breast cancer cells” (Archives of Pharmacal Research, 2022).
“Also recorded” adds a separate entry of the source. Like-named read-outs stand apart in the source and are kept apart here.

Experiments:
[1] = system: MDA-MB-231 cells; assay: MTT cytotoxicity/photocytotoxicity test on human TNBC MDA-MB-231 cells; type: cell-based; settings: Homo sapiens
Protocol: The irradiation device used for the irradiation of cell cultures during the assays was a black box equipped with two Philips UVA lamps with an irradiance of 17 mW cm^−2 and a centered emission peak at 365 nm; UVA irradiance was measured using a Waldmann Variocontrol radiometer, equipped with a UVA sensor. The box was maintained at room temperature inside with a fan and the multiwell plates were placed onto a water-refrigerated metal block.
Human triple negative (TNBC) breast MDA-MB-231 carcinoma cells were obtained from American Type Culture Collection (ATCC, Rockville, MD, USA). Human embryonic kidney HEK293 cells were obtained from the European Collection of Cell Cultures (ECACC, Salisbury, UK). Cell lines were maintained in the logarithmic phase at 37 °C in a 5% CO2 atmosphere using the following culture media containing 10% foetal calf serum (Euroclone, Milan, Italy), antibiotics (50 units/mL penicillin and 50 μg/mL streptomycin) and 2 mM l-glutamine: (i) RPMI-1640 medium (Euroclone, Milan, Italy) for MDA-MB-231 4 cells; (ii) DMEM (Euroclone, Milan, Italy) for HEK293 cells.
Cells (5–8 × 10^3 cells/well, dependent upon the growth characteristics of the cell line) were seeded in 96-well microplates in growth medium (100 μL). After 24 h, the medium was removed and replaced with a fresh one containing the compound to be studied at the appropriate concentration. Triplicate cultures were established for each treatment. For photocytotoxicity studies, after 1 h of incubation the medium was replaced with PBS and cells were treated with 2.0 J cm^−2 of UVA light. After irradiation, PBS was replaced with complete proliferation media. For pre-irradiation studies, instead, compounds in PBS were irradiated with 2.0 J cm^−2 of UVA light and subsequently cells were treated with pre-irradiated solutions. Following 24 h, each well was treated with 10 μL of a 5 mg/mL MTT saline solution, and following 5 h of incubation, 100 μL of a sodium dodecyl sulfate (SDS) solution in HCl 0.01 M were added. After an overnight incubation, cell growth inhibition was detected by measuring the absorbance of each well at 570 nm using a Bio-Rad 680 microplate reader. Mean absorbance for each drug dose was expressed as a percentage of the control untreated well absorbance and plotted against drug concentration. IC50 values, the drug concentrations that reduce the mean absorbance at 570 nm to 50% of those in the untreated control wells, were calculated by the four-parameter logistic (4-PL) model. Evaluation was based on means from at least four independent experiments.
The new synthetized pyrrolo[1,2-h][1,7]naphthyridinones 7 and pyrido[2,3-c]pyrrolo[1,2-a]azepinones 8 were screened for their cytotoxicity (in the dark) and photocitotoxicity (upon UVA light irradiation at 2.0 J/cm^2) profile on human TNBC cells, MDA-MB-231. The cytotoxicity/photocytotoxicity parameters, expressed in terms of IC50 values obtained by MTT test after 24 h of drug-exposure, are listed in Table 2.

[2] = system: MDA-MB-231 cells; assay: Intracellular ROS production (CM-H2DCFDA) under UVA; type: cell-based, human; settings: MDA-MB-231, 25 µM, 90 min, UVA 2.0 J/cm^2; antimycin 3 µM positive control
Protocol: The production of ROS was measured in MDA-MB-231 cells (10^4 per well) grown for 24 h in a 96-well plate in RPMI medium without phenol red (Merk, Germany). Cells were then washed with PBS and loaded with 10 μM 5-(and-6)-chloromethyl-2′,7′-dichlorodihydrofluorescein diacetate acetyl ester (CM–H2DCFDA) (Molecular Probes-Invitrogen, Eugene, OR) for 45 min, in the dark. Afterwards, cells were washed with PBS and incubated with tested compounds (25 µM) for 90 min and after that exposed to UVA light (2.0 J/cm^2). Fluorescence increase was estimated utilizing the wavelengths of 485 nm (excitation) and 527 nm (emission) in a VICTOR X3 (PerkinElmer, USA) plate reader. Antimycin (3 μM, Merk), a potent inhibitor of Complex III in the electron transport chain, was used as positive control.
ROS production under light (UVA, 2.0 J/cm^2) was evaluated in MDA-MB-231 cell samples treated with increasing concentrations of tested compounds or antimycin, a potent inhibitor of Complex III of mitochondria electron chain, used as a positive control under the same experimental conditions (Fig. 4).
(§1) Fig. 4 Cellular ROS production (A) and total thiol redox state (B). A Effect of UVA activated tested compounds (25 µM) or antimycin (3 µM) on hydrogen peroxide formation in MDA-MB-231 cancer cells. B Sulfhydryl content in MDA-MB-231 cancer cells incubated for 24 h with UVA activated tested compounds. The sulfhydryl group amount was determined by the DTNB assay. Error bars indicate S.D

[3] = system: MDA-MB-231 cells; assay: Quantification of thiols (DTNB assay); type: cell-based, human; settings: MDA-MB-231, 25 µM; for Intracellular thiols (qualitative): UVA 2.0 J/cm^2
Protocol: The MDA-MB-231 cells (2 × 10^5) were seeded in a six-well plate in growth medium (4 mL). After 24 h, cells were incubated with tested compounds (25 µM) for 90 min, and after that exposed to UVA light (2.0 J/cm^2). Subsequently, after 24 h, the thiol content was measured as previously described (Rigobello et al. [2009]).
as §1

[4] = system: MDA-MB-231 cells; assay: Cell death induction (Hoechst / PI staining, confocal microscopy); type: cell-based, human; settings: MDA-MB-231, IC50 doses, 24 h
Protocol: MDA-MB-231 cells were seeded into 8-well tissue-culture slides (BD Falcon, Bedford, MA, USA) at 5 × 10^4 cells/well (0.8 cm^2). After 24 h, the cells were washed twice with PBS and, following 24 h of treatment with IC50 doses of the tested compound, cells were stained for 5 min with 10 µg/mL of Hoechst 33258 (20-(4-hydroxyphenyl)-5-(4-methyl-1-piperazinyl)-2,50-bi-1H-benzimidazole trihydrochloride hydrate, Sigma-Aldrich, St.Louis, MI, USA) or propidium iodide (PI, Sigma-Aldrich, St.Louis, MI, USA) in PBS. Samples were examined at × 5 and × 40 magnification in a Zeiss LSM 800 confocal microscope using the Zeiss ZEN 2.3 software system.
Fig. 5 Effects on mitochondrial membrane potential (A) and cell death induction (B) in human breast MDA-MB-231 cancer cells. A Cells were treated with 7h and 8e and stained with TMRM (10 nM). Fluorescence was estimated at 490 nm (excitation) and 590 nm (emission). Data are the means of five independent experiments. Error bars indicate S.D. * P < 0.05. B Cells were treated with concentrations of 7h and 8e equal to IC50 for 24 h and stained with the fluorescent dyes Hoechst 33342 and PI
Loss of mitochondrial transmembrane potential is a crucial step in the activation of intrinsic apoptotic cell death. […] MDA-MB-231 cells were treated with IC50 doses of tested compounds and apoptotic cell death induction was confirmed through a Hoechst 33342 staining assay.

[5] = MDA-MB-231, in the dark, 1 h pre-treatment, recovered for total 24 h, read-out: Dark IC50 (µM) ± S.D
[6] = light or radiation study, MDA-MB-231, 1 h pre-treatment, UVA 2.0 J/cm^2, recovered for total 24 h, read-out: UVA (2.0 J/cm^2) IC50 (µM) ± S.D

Structure (SMILES) | IC50 [1, 5] [µM] | IC50 [1, 6] [µM] | Cellular ROS production (hydrogen peroxide formation) [2] | Intracellular thiols (qualitative) [3] | Decrease of intracellular sulfhydryl content ([3]; UVA 2.0 J/cm^2, after 24 h of exposure) | Apoptotic cell death induction (Hoechst 33342 staining) [4] | Necrosis induction (PI staining) [4]
CCOC(=O)c1ccc2n1CCc1cc(S(=O)(=O)c3ccccc3)c(OC)nc1-2 [Compound 7h, Ethyl 3-(benzenesulfonyl)-2-methoxy-5,6-dihydropyrrolo[1,2-h][1,7]naphthyridine-8-carboxylate] | > 50 | 4.4 ± 0.5 | highest increase in cellular ROS production; also recorded: hydrogen peroxide content comparable to that induced by antimycin | significantly decreased | about 45% | positive to Hoechst 33342 staining | poor stained with PI
CCOC(=O)c1ccc2n1CCCc1cc(S(=O)(=O)c3ccccc3)c(OC)nc1-2 [Compound 8e, Ethyl 3-(benzenesulfonyl)-2-methoxy-6,7-dihydro-5H-pyrido[2,3-c]pyrrolo[1,2-a]azepine-9-carboxylate] | > 50 | 15.3 ± 1.7 | highest increase in cellular ROS production | significantly decreased |  | positive to Hoechst 33342 staining | poor stained with PI
